Patent publication US8785460B2, “Tricyclic compounds and use thereof” (Takeda Pharmaceutical Company Limited, priority 2008, dated 2014)

Columns and labels:
[1] = biological target: T1, human CRF1 receptor (Homo sapiens, UniProt P34998); assay: Measurement of CRF Binding Inhibitory Rate (receptor binding experiment with 125I-CRF); details: human CRF1 receptor expressing CHO cellular membrane fraction, 50 pM 125I-CRF, room temperature 1.5 hr, 0.05 nM to 10 μM of compound; read-out: IC50 values (CRF binding inhibition)
T1 construct: expressed in transfected cells; host or cells: CHO cells (membrane fraction)
T1 sequence (P34998 24-415): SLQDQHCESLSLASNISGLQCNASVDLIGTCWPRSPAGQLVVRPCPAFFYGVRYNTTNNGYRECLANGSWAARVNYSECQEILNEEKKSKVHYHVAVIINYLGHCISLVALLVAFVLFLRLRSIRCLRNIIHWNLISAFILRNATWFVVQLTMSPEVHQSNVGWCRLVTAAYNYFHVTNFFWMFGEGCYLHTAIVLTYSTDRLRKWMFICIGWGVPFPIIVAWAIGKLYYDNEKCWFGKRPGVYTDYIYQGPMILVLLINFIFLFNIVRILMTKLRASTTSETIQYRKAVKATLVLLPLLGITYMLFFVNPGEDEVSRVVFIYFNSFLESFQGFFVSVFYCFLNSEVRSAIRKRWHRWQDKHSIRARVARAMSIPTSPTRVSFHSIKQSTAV

For `CCC(NS(C)(=O)=O)c1ccc(Cl)c2nc3n(c12)CCCN3c1ccc(Cl)cc1Cl` (centres unmarked) [Example 373, N-{1-[9-Chloro-1-(2,4-dichlorophenyl)-1,2,3,4-tetrahydropyrimido[1,2-a]benzimidazol-6-yl]propyl}methanesulfonamide], the IC50 [1] was under 1000 nM and the melting point was 125 to 126 °C.
In the case of `CCNC(=O)NC(CC)c1ccc(Cl)c2nc3n(c12)CCCN3c1ccc(Cl)cc1Cl` (centres unmarked) [Example 374, 1-{1-[9-Chloro-1-(2,4-dichlorophenyl)-1,2,3,4-tetrahydropyrimido[1,2-a]benzimidazol-6-yl]propyl}-3-ethylurea], the IC50 [1] is reported as under 1000 nM and the melting point is reported as 250 to 252 °C.
With `CCC(O)c1ccc(Cl)c2nc3n(c12)CCCN3c1c(Cl)cc(Cl)cc1Cl` (centres unmarked) [Example 391, 1-[9-Chloro-1-(2,4,6-trichlorophenyl)-1,2,3,4-tetrahydropyrimido[1,2-a]benzimidazol-6-yl]propan-1-ol] the IC50 [1] was under 1000 nM and the melting point was 213 to 214 °C.
Work on `CCC(O)c1ccc(Cl)c2nc3n(c12)CCCN3c1c(Cl)cc(OC)cc1Cl` (centres unmarked) [Example 394, 1-[9-Chloro-1-(2,6-dichloro-4-methoxyphenyl)-1,2,3,4-tetrahydropyrimido[1,2-a]benzimidazol-6-yl]propan-1-ol] yielded an IC50 [1] of under 1000 nM and a melting point of 206 to 208 °C.
In the case of `CCC(O)c1ccc(Cl)c2nc3n(c12)CCCN3c1c(Br)cc(OC)cc1Br` (centres unmarked) [Example 397, 1-[9-Chloro-1-(2,6-dibromo-4-methoxyphenyl)-1,2,3,4-tetrahydropyrimido[1,2-a]benzimidazol-6-yl]propan-1-ol], the IC50 [1] is reported as under 1000 nM and the melting point is reported as 138 to 140 °C.
`Cc1cc(C#N)ccc1N1CCCn2c1nc1c(Cl)ccc(C(OCC(F)(F)F)C3CC3)c12` (centres unmarked) [Example 402, 4-{9-Chloro-6-[cyclopropyl(2,2,2-trifluoroethoxy)methyl]-3,4-dihydropyrimido[1,2-a]benzimidazol-1(2H)-yl}-3-methylbenzonitrile] showed an IC50 [1] of under 1000 nM and a melting point of 207 to 209 °C.
For `CCC(NC(=O)C(F)F)c1ccc(Cl)c2nc3n(c12)CCCN3c1c(Cl)cc(Cl)cc1Cl` (centres unmarked) [Example 409, N-{1-[9-Chloro-1-(2,4,6-trichlorophenyl)-1,2,3,4-tetrahydropyrimido[1,2-a]benzimidazol-6-yl]propyl}-2,2-difluoroacetamide], the IC50 [1] was under 1000 nM and the melting point was 211 to 213 °C.
In the case of `CCC(NC(=O)OC)c1ccc(Cl)c2nc3n(c12)CCCN3c1c(Cl)cc(Cl)cc1Cl` (centres unmarked) [Example 410, Methyl {1-[9-chloro-1-(2,4,6-trichlorophenyl)-1,2,3,4-tetrahydropyrimido[1,2-a]benzimidazol-6-yl]propyl}carbamate], the IC50 [1] is reported as under 1000 nM and the melting point is reported as 231 to 233 °C.
`CS(=O)(=O)NC(c1ccc(Cl)c2nc3n(c12)CCCN3c1c(Cl)cc(Cl)cc1Cl)C(F)(F)F` (centres unmarked) [Example 416, N-{1-[9-Chloro-1-(2,4,6-trichlorophenyl)-1,2,3,4-tetrahydropyrimido[1,2-a]benzimidazol-6-yl]-2,2,2-trifluoroethyl}methanesulfonamide] gave an IC50 [1] of under 1000 nM and a melting point of 290 to 291 °C.
In the case of `Cc1cc(Cl)cc(Cl)c1N1CCn2c1nc1c(Cl)ccc(C(O)(C3CC3)C3CC3)c12` [Example 426, [8-Chloro-1-(2,4-dichloro-6-methylphenyl)-2,3-dihydro-1H-imidazo[1,2-a]benzimidazol-5-yl](dicyclopropyl)methanol], the IC50 [1] is reported as under 1000 nM and the melting point is reported as 193 to 196 °C.
In the case of `Cc1cc(Cl)cc(Cl)c1N1CCn2c1nc1cccc(C(O)(C3CC3)C3CC3)c12` [Example 428, Dicyclopropyl[1-(2,4-dichloro-6-methylphenyl)-2,3-dihydro-1H-imidazo[1,2-a]benzimidazol-5-yl]methanol], the IC50 [1] is reported as under 1000 nM and the melting point is reported as 243 to 246 °C.
Molecule `CCC(OC(=O)C1CC1)c1ccc(Cl)c2nc3n(c12)CCCN3c1ccc(Cl)cc1Cl` (centres unmarked) [Example 431, 1-[9-Chloro-1-(2,4-dichlorophenyl)-1,2,3,4-tetrahydropyrimido[1,2-a]benzimidazol-6-yl]propyl cyclopropanecarboxylate] has an IC50 [1] of under 1000 nM and a melting point of 159 to 161 °C.
Molecule `CCC(OC(=O)COC)c1ccc(Cl)c2nc3n(c12)CCCN3c1ccc(Cl)cc1Cl` (centres unmarked) [Example 432, 1-[9-Chloro-1-(2,4-dichlorophenyl)-1,2,3,4-tetrahydropyrimido[1,2-a]benzimidazol-6-yl]propyl methoxyacetate] has an IC50 [1] of under 1000 nM and a melting point of 156 to 158 °C.
With `CCC(OC(=O)CS(C)(=O)=O)c1ccc(Cl)c2nc3n(c12)CCCN3c1ccc(Cl)cc1Cl` (centres unmarked) [Example 433, 1-[9-Chloro-1-(2,4-dichlorophenyl)-1,2,3,4-tetrahydropyrimido[1,2-a]benzimidazol-6-yl]propyl (methylsulfonyl) acetate] the IC50 [1] was under 1000 nM and the melting point was 187 to 189 °C.
For `CCC(OC(C)=O)c1ccc(Cl)c2nc3n(c12)CCN3c1c(C)cc(Cl)cc1Cl` (centres unmarked) [Example 437, 1-[8-Chloro-1-(2,4-dichloro-6-methylphenyl)-2,3-dihydro-1H-imidazo[1,2-a]benzimidazol-5-yl]propyl acetate], the IC50 [1] was under 1000 nM and the melting point was 190 to 192 °C.
`CCC(NC(C)=O)c1ccc(Cl)c2nc3n(c12)CCCN3c1ccc(Cl)cc1Cl` (centres unmarked) [Example 440, N-{1-[9-Chloro-1-(2,4-dichlorophenyl)-1,2,3,4-tetrahydropyrimido[1,2-a]benzimidazol-6-yl]propyl}acetamide] gave an IC50 [1] of under 1000 nM and a melting point of 237 to 239 °C.
In the case of `CCC(OC(=O)CO)c1ccc(Cl)c2nc3n(c12)CCCN3c1ccc(Cl)cc1Cl` (centres unmarked) [Example 443, 1-[9-Chloro-1-(2,4-dichlorophenyl)-1,2,3,4-tetrahydropyrimido[1,2-a]benzimidazol-6-yl]propyl hydroxyacetate], the IC50 [1] is reported as under 1000 nM and the melting point is reported as 191 to 193 °C.
`CCC(NC(=O)OC)c1ccc(Cl)c2nc3n(c12)CCCN3c1ccc(Cl)cc1Cl` (centres unmarked) [Example 446, Methyl {1-[9-chloro-1-(2,4-dichlorophenyl)-1,2,3,4-tetrahydropyrimido[1,2-a]benzimidazol-6-yl]propyl}carbamate] showed an IC50 [1] of under 1000 nM and a melting point of 201 to 203 °C.
`CCC(NC(=O)CC(F)(F)F)c1ccc(Cl)c2nc3n(c12)CCCN3c1ccc(Cl)cc1Cl` (centres unmarked) [Example 447, N-{1-[9-Chloro-1-(2,4-dichlorophenyl)-1,2,3,4-tetrahydropyrimido[1,2-a]benzimidazol-6-yl]propyl}-3,3,3-trifluoropropanamide] showed an IC50 [1] of under 1000 nM and a melting point of 285 to 290 °C.
Work on `CCC(CCO)c1ccc(Cl)c2nc3n(c12)CCCN3c1ccc(Cl)cc1Cl` (centres unmarked) [Example 450, 3-[9-Chloro-1-(2,4-dichlorophenyl)-1,2,3,4-tetrahydropyrimido[1,2-a]benzimidazol-6-yl]pentan-1-ol] yielded an IC50 [1] of under 1000 nM and a melting point of 183 to 185 °C.
For `CCC(CC(C)=O)c1ccc(Cl)c2nc3n(c12)CCCN3c1ccc(Cl)cc1Cl` (centres unmarked) [Example 452, 4-[9-Chloro-1-(2,4-dichlorophenyl)-1,2,3,4-tetrahydropyrimido[1,2-a]benzimidazol-6-yl]hexan-2-one], the IC50 [1] was under 1000 nM and the melting point was 195 to 197 °C.
`CCC(CCOC)c1ccc(Cl)c2nc3n(c12)CCCN3c1ccc(Cl)cc1Cl` (centres unmarked) [Example 453, 9-Chloro-1-(2,4-dichlorophenyl)-6-(1-ethyl-3-methoxypropyl)-1,2,3,4-tetrahydropyrimido[1,2-a]benzimidazole] gave an IC50 [1] of under 1000 nM and a melting point of 144 to 146 °C.
`CCC(OCC(F)(F)F)c1ccc(Cl)c2nc3n(c12)CCCN3c1ccc(Cl)cc1Cl` (centres unmarked) [Example 454, 9-Chloro-1-(2,4-dichlorophenyl)-6-[1-(2,2,2-trifluoroethoxy)propyl]-1,2,3,4-tetrahydropyrimido[1,2-a]benzimidazole] showed an IC50 [1] of under 1000 nM and a melting point of 146 to 148 °C.
Molecule `FC(F)(F)COC(c1ccc(Cl)c2nc3n(c12)CCCN3c1ccc(Cl)cc1Cl)C1CC1` (centres unmarked) [Example 455, 9-Chloro-6-[cyclopropyl (2,2,2-trifluoroethoxy)methyl]-1-(2,4-dichlorophenyl)-1,2,3,4-tetrahydropyrimido[1,2-a]benzimidazole] has an IC50 [1] of under 1000 nM and a melting point of 143 to 145 °C.
Molecule `CCNC(CC)c1ccc(Cl)c2nc3n(c12)CCCN3c1ccc(Cl)cc1Cl` (centres unmarked) [Example 458, 1-[9-Chloro-1-(2,4-dichlorophenyl)-1,2,3,4-tetrahydropyrimido[1,2-a]benzimidazol-6-yl]-N-ethylpropan-1-amine] has an IC50 [1] of under 1000 nM and a melting point of 124 to 127 °C.
With `CCC(NCC(F)(F)F)c1ccc(Cl)c2nc3n(c12)CCCN3c1ccc(Cl)cc1Cl` (centres unmarked) [Example 459, 1-[9-Chloro-1-(2,4-dichlorophenyl)-1,2,3,4-tetrahydropyrimido[1,2-a]benzimidazol-6-yl]-N-(2,2,2-trifluoroethyl)propan-1-amine] the IC50 [1] was under 1000 nM and the melting point was 133 to 135 °C.
With `CCC(c1ccc(Cl)c2nc3n(c12)CCCN3c1ccc(Cl)cc1Cl)S(=O)(=O)CC` (centres unmarked) [Example 462] the IC50 [1] was under 1000 nM and the melting point was 278 to 280 °C.
In the case of `CCC(NC(=O)C(F)F)c1ccc(Cl)c2nc3n(c12)CCCN3c1ccc(Cl)cc1Cl` (centres unmarked) [Example 463, N-{1-[9-Chloro-1-(2,4-dichlorophenyl)-1,2,3,4-tetrahydropyrimido[1,2-a]benzimidazol-6-yl]propyl}-2,2-difluoroacetamide], the IC50 [1] is reported as under 1000 nM and the melting point is reported as 248 to 250 °C.
